Reference: ChEMBL document CHEMBL1268936, “Towards a systematic characterization of the antiprotozoal activity landscape of benzimidazole derivatives” (Bioorg Med Chem, 2010)

Key:
Trichomonas vaginalis = test: Antiprotozoal activity against Trichomonas vaginalis; type: functional, organism-based
Giardia intestinalis = test: Antiprotozoal activity against Giardia intestinalis; type: functional, organism-based; conditions: Giardia duodenalis

CCCSc1ccc2c(c1)nc(C(F)(F)F)n2C
IC50 (Trichomonas vaginalis): 200 nM | IC50 (Giardia intestinalis): 10500 nM

CCCSc1ccc2nc(C(F)(F)F)n(C)c2c1
IC50 (Trichomonas vaginalis): 2570 nM | IC50 (Giardia intestinalis): 1410 nM

Cn1c(C(F)(F)F)nc2cc(C(=O)c3ccccc3)ccc21
IC50 (Trichomonas vaginalis): 29500 nM | IC50 (Giardia intestinalis): 1100 nM

Cn1c(C(F)(F)F)nc2ccc(C(=O)c3ccccc3)cc21
IC50 (Trichomonas vaginalis): 10700 nM | IC50 (Giardia intestinalis): 1290 nM

FC(F)(F)C(F)(F)c1nc2cc(Cl)c(Cl)cc2[nH]1
IC50 (Trichomonas vaginalis): 302 nM | IC50 (Giardia intestinalis): 562 nM

O=[N+]([O-])c1cc2nc(C(F)(F)F)[nH]c2cc1[N+](=O)[O-]
IC50 (Trichomonas vaginalis): 575 nM | IC50 (Giardia intestinalis): 240 nM

FC(F)(F)C(F)(F)c1nc2c(Br)c(Br)c(Br)c(Br)c2[nH]1
IC50 (Trichomonas vaginalis): 10000 nM | IC50 (Giardia intestinalis): 22.9 nM

FC(F)(F)c1nc2c(Br)c(Br)c(Br)c(Br)c2[nH]1
IC50 (Trichomonas vaginalis): 2 nM | IC50 (Giardia intestinalis): 56.2 nM

FC(F)(F)c1nc2cc(Br)c(Br)cc2[nH]1
IC50 (Trichomonas vaginalis): 219 nM | IC50 (Giardia intestinalis): 120 nM
